Laboratory results published in ChEMBL document CHEMBL2057129, “Evaluation of synthetic FK506 analogues as ligands for the FK506-binding proteins 51 and 52” (J Med Chem, 2012).

What was measured:
[1] = molecular target: Peptidyl-prolyl cis-trans isomerase FKBP1A (Homo sapiens, UniProt P62942); experiment: Binding affinity to FKBP12 by fluorescence polarization assay
[2] = molecular target: T1, Peptidyl-prolyl cis-trans isomerase FKBP4 (Homo sapiens, UniProt Q02790); experiment: Binding affinity to FKBP52 FK1 domain by fluorescence polarization assay
T1 sequence (Q02790 whole entry): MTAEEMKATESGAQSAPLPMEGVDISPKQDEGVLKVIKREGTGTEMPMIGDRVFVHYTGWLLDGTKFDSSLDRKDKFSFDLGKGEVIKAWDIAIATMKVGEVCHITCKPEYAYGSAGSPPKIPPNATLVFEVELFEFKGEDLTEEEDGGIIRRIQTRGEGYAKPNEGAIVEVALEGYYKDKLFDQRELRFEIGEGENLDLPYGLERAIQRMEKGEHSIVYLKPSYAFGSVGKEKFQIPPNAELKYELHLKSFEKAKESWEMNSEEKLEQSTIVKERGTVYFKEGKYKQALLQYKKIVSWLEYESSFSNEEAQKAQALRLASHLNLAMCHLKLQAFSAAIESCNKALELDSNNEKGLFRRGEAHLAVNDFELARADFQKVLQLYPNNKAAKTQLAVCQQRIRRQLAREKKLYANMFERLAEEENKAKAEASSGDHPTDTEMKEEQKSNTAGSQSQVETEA

[3] = molecular target: T2, Peptidyl-prolyl cis-trans isomerase FKBP5 (Homo sapiens, UniProt Q13451); experiment: Binding affinity to FKBP51 FK1 domain by fluorescence polarization assay
T2 sequence (Q13451 whole entry): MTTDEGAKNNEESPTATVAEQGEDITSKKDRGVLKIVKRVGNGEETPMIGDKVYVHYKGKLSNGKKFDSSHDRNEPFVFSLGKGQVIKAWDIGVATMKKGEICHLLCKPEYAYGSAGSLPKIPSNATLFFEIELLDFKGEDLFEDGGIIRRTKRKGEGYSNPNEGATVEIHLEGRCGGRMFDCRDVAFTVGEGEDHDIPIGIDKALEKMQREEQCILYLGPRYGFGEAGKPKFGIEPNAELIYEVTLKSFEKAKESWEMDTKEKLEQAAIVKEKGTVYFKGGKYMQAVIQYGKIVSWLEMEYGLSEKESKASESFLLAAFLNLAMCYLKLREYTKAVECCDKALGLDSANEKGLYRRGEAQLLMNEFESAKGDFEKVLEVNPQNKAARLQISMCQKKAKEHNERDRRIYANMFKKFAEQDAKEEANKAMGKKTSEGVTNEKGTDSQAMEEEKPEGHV

Chain of Peptidyl-prolyl cis-trans isomerase FKBP1A (P62942 whole entry, the tested form may be a part): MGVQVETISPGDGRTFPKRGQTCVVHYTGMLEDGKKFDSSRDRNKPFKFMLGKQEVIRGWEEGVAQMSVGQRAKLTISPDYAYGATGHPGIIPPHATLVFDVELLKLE

Row | Compound | IC50 [1] [µM] | IC50 [2] [µM] | IC50 [3] [µM]
1 | COc1ccc(CC[C@@H](OC(=O)[C@@H]2CCCCN2C(=O)C(=O)[C@]2(O)CCCC[C@H]2C)c2cccc(OCC(=O)O)c2)cc1OC (mixture of isomers) | 0.06 |  | 
2 | COc1ccc(CC[C@@H](OC(=O)[C@@H]2CCCCN2C(=O)C(=O)[C@@]2(O)CCCC[C@@H]2C)c2cccc(OCC(=O)O)c2)cc1OC | 0.05 |  | 
3 | CCC(C)(C)C(=O)C(=O)N1CCCC[C@H]1C(=O)OC | 17.1 | > 100 | > 100
4 | COc1ccc(CC[C@@H](OC(=O)[C@@H]2CCCCN2C(=O)C(=O)[C@]2(O)CCCC[C@H]2C)c2cccc(OCCN3CCOCC3)c2)cc1OC (mixture of isomers) | 0.06 |  | 
5 | CCC(C)(C)C(=O)C(=O)N1CCCC[C@H]1C(=O)OCCCc1cccnc1 | 2.11 | > 150 | > 150
6 | CCC(C)(C)C(=O)C(=O)N1CCC[C@H]1C(=O)O[C@H](CCc1ccc(OC)c(OC)c1)c1cccc(OCCN2CCOCC2)c1 | 1.05 | 5.55 | 15.3
7 | COc1ccc(CC[C@@H](OC(=O)[C@@H]2CCCCN2C(=O)C(=O)[C@]2(O)CCCC[C@H]2CO)c2cccc(OCC(=O)O)c2)cc1OC | 0.51 |  | 
8 | CC[C@H]1CCCC[C@@]1(O)C(=O)C(=O)N1CCCC[C@H]1C(=O)O[C@H](CCc1ccc(OC)c(OC)c1)c1cccc(OCC(=O)O)c1 (mixture of isomers) | 0.57 |  | 
9 | CC[C@@H]1CCCC[C@@]1(O)C(=O)C(=O)N1CCCC[C@H]1C(=O)O[C@H](CCc1ccc(OC)c(OC)c1)c1cccc(OCC(=O)O)c1 | 0.13 |  | 
10 | CC[C@@H]1CCCC[C@@]1(O)C(=O)C(=O)N1CCCC[C@H]1C(=O)OCCOc1ccc(OC)c(OC)c1 (mixture of isomers) | 2.78 | > 100 | > 100
11 | CC[C@H]1CCCC[C@]1(O)C(=O)C(=O)N1CCCC[C@H]1C(=O)O[C@H](CCc1ccc(OC)c(OC)c1)c1cccc(OCC(=O)O)c1 | 0.343 |  | 
12 | COc1ccc(CC[C@@H](OC(=O)[C@@H]2CCCCN2C(=O)C(=O)[C@]2(O)CCCC[C@@H]2C)c2cccc(OCC(=O)O)c2)cc1OC (mixture of isomers) | 0.06 |  | 
13 | CCC(C)(C)C(=O)C(=O)N1CCCC[C@H]1C(=O)O[C@H](CCc1ccc(OC)c(OC)c1)c1cccc(OCC(=O)O)c1 | 0.17 | 10.5 | 
14 | COc1ccc(OCCOC(=O)[C@@H]2CCCCN2C(=O)C(=O)[C@]2(O)CCCC[C@H]2C)cc1OC (mixture of isomers) | 0.31 | 11.7 | 29.4
15 | CC[C@@H]1CCCC[C@@]1(O)C(=O)C(=O)N1CCCC[C@H]1C(=O)O[C@H](CCc1ccc(OC)c(OC)c1)c1cccc(OCCN2CCOCC2)c1 (mixture of isomers) | 0.47 |  | 
16 | CCC(C)(C)C(=O)C(=O)N1CC=CC[C@H]1C(=O)O[C@H](CCc1ccc(OC)c(OC)c1)c1cccc(OCC(=O)O)c1 | 0.55 |  | 

Row | Compound | IC50 [1] [µM] | IC50 [2] [µM] | IC50 [3] [µM]
17 | CC[C@@H]1CCCC[C@@]1(O)C(=O)C(=O)N1CCCC[C@H]1C(=O)O[C@H](CCc1ccc(OC)c(OC)c1)c1cccc(OCC(=O)O)c1 (mixture of isomers) | 0.32 |  | 
18 | COc1ccc(CC[C@@H](OC(=O)[C@@H]2CCCCN2C(=O)C(=O)c2cc(OC)c(OC)c(OC)c2)c2cccc(OCC(=O)O)c2)cc1OC | 0.15 |  | 
19 | COc1ccc(CC[C@@H](OC(=O)[C@@H]2CCCCN2C(=O)C(=O)[C@]2(O)CCCC[C@H]2C)c2cccc(OCC(=O)O)c2)cc1OC | 0.06 |  | 
20 | CCC(C)(C)C(=O)C(=O)N1CCC[C@H]1C(=O)OCCCc1cccnc1 [GPI-1046] | 1.24 | > 100 | > 100
21 | CCC(C)(C)C(=O)C(=O)N1CCCC[C@H]1C(=O)NC(CCc1ccc(OC)c(OC)c1)c1cccc(OCC(=O)O)c1 (mixture of isomers) | 3.38 | > 100 | > 100
22 | COc1ccc(CCOC(=O)[C@@H]2CCCCN2C(=O)C(=O)[C@]2(O)CCCC[C@H]2C)cc1OC (mixture of isomers) | 2.2 | > 100 | > 100
23 | COc1ccc(CC[C@@H](OC(=O)[C@@H]2CCCCN2C(=O)C(=O)[C@]2(O)CCCC[C@@H]2C)c2cccc(OCC(=O)O)c2)cc1OC | 0.05 |  | 
24 | COc1cc(C(=O)C(=O)N2CCCC[C@H]2C(=O)OC(CCCc2cccnc2)CCCc2cccnc2)cc(OC)c1OC [BIRICODAR] | 0.017 | 7.37 | 8.52
25 | COc1ccc(CC[C@@H](OC(=O)[C@@H]2CCCCN2C(=O)C(=O)[C@@]2(O)CCCC[C@H]2C)c2cccc(OCC(=O)O)c2)cc1OC | 0.06 |  | 
26 | CCC(C)(C)C(=O)C(=O)N1CCC[C@H]1C(=O)O[C@H](CCc1ccc(OC)c(OC)c1)c1cccc(OCC(=O)O)c1 | 0.8 |  | 
27 | CCC(C)(C)C(=O)C(=O)N1CCSC[C@H]1C(=O)O[C@H](CCc1ccc(OC)c(OC)c1)c1cccc(OCC(=O)O)c1 | 1.29 | > 100 | > 100
28 | CCC(C)(C)C(=O)C(=O)N1CCCC[C@H]1C(=O)O[C@H](CCc1ccc(OC)c(OC)c1)c1cccc(N)c1 |  | 1.07 | 3.8
29 | CCC(C)(C)C(=O)C(=O)N1CCCC[C@H]1C(=O)O[C@H](CCc1ccc(OC)c(OC)c1)c1cccc(OCCN2CCOCC2)c1 | 0.1 | 2.8 | 
30 | CCC(C)(C)C(=O)C(=O)N1CCCC[C@H]1C(=O)OCCOc1ccc(OC)c(OC)c1 | 2.45 | > 100 | > 100
31 | COc1cc(C(=O)C(=O)N(C)[C@@H](Cc2ccc(Cl)cc2)C(=O)N(Cc2ccccc2)C(CCc2ccncc2)CCc2ccncc2)cc(OC)c1OC [TIMCODAR] | > 100 | > 100 | > 100
